This note sets out measurements from patent publication US6197768A, “Pyridocarbazole derivatives having cgmp-pde inhibitory activity” (Mochida Pharmaceutical Co., Ltd., priority 1996, dated 2001).

A word on the IC50: it is the concentration at which inhibition is half-maximal.

In one assay the target is T1, PDE type III (Canis lupus familiaris, UniProt A0A8I3NYE0).
T1 construct: PDE was purified from the aorta in a dog; from tissue; host or cells: dog aorta
T1 sequence (A0A8I3NYE0 1-1135): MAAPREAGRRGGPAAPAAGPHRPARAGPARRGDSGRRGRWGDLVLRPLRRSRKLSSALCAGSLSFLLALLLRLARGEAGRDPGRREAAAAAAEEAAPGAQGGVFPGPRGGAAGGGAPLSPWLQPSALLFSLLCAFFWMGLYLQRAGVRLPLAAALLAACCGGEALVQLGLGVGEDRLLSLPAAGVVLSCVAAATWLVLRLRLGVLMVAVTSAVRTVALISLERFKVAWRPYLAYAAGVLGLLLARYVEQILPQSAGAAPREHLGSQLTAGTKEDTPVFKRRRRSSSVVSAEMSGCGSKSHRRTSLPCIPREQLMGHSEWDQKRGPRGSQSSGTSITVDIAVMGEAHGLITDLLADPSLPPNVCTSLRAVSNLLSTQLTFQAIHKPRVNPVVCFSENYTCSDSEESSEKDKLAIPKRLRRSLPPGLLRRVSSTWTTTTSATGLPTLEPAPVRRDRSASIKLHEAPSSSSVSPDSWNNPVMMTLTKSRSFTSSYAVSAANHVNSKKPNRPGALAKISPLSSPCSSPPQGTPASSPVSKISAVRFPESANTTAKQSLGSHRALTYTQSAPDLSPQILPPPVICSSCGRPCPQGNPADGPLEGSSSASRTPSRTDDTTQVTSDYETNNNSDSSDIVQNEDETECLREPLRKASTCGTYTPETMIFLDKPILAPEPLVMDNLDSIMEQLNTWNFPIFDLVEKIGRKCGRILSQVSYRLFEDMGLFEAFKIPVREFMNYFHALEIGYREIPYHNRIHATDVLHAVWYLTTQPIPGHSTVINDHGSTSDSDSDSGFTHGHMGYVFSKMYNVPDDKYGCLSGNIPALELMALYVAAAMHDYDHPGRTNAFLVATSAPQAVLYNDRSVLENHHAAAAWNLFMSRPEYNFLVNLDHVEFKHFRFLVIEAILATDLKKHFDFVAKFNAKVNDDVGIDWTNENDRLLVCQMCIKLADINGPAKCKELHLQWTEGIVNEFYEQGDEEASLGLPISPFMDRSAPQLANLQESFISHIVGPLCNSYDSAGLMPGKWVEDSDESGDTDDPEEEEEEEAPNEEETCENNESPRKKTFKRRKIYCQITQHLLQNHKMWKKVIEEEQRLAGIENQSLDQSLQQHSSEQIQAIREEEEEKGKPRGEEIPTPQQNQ
Briefly: PDE Inhibiting Activity, type III. In kind it is biochemical, dog (canine aorta). To be noted: PDE type III from canine aorta, 1 μM substrate, pH 7.5; read-out: Inhibition Activity IC50, Type III. As to the method:
(§1) On the basis of the method of Lugnier et al. (Biochem. Pharmacol., 35, 1743-1751, 1986), PDE was purified from the aorta in a dog. The canine aorta was minced and homogenized with a Waring Blender and a glass homogenizer in six volumes of a Tris-HCl buffer solution (pH 7.5, 20 mM) containing 2 mM magnesium acetate, 5 mM ethylenediaminetetraacetic acid (EDTA), 100 μg/mL of phenylmethylsulforyl fluoride and 15 mM 2-mercaptoethanol (2-ME), and centrifuged at 1200 xg for 30 min. The supernatant was separated and salted out with ammonium sulfate which was added to 45% saturation. The resulting precipitated fraction was resuspended in a Tris-HCl buffer solution (pH 7.5, 20 mM) containing 2 mM magnesium acetate and 1 mM 2-ME, dialyzed overnight and applied to a DEAE-trisacryl column (DEAE […] M:IBF). By elution with a sodium chloride gradient (0-0.4 M), PDE types V and III were separated from the other isozymes. The supernatant fraction of 45% saturated ammonium sulfate was further mixed with ammonium sulfate to 65% saturation and salted out. The resulting precipitated fraction was similarly applied to the DEAE-trisacryl column and eluted by a sodium chloride gradient (0-0.4 M) so as to separate PDE type I.
(§2) The thus obtained PDE types V, III and I were measured for their activity in accordance with the method of Thompson et al. (Adv. Cyclic Nucleotide Res., 10, 69-72, 1979) and the method of Wells et al. (Biochim. Biophys. Acta, 384, 430-443, 1975). Specifically, a purified PDE sample was added to 50 mM Tris-HCl buffer solution (pH 7.5) containing 1 μM of substrate cGMP or cAMP (containing tritium-labelled cGMP or cAMP), 1 mM EGTA and 2 mM magnesium acetate. For PDE activity measurement, enzymatically produced 5' GMP or 5' AMP was further hydrolyzed into guanosine or adenosine with snake venom and separated from the substrate by means of an ion-exchange resin (Dowex 1-X2), followed by measuring with a scintillation counter. The activity of each test compound was determined as a percentage of the DPE activity measured when it was added as a dimethyl sulfoxide solution (DMSO) and its IC50 (50% inhibition concentration) was calculated by the probit method. The final concentration of DMSO was adjusted to be no more than 2% in consideration of the effect on PDE activity.

In the next assay the test system is PDE type I. Briefly: PDE Inhibiting Activity, type I. Type of assay: biochemical, dog (canine aorta). To be noted: PDE type I from canine aorta, 1 μM substrate, pH 7.5; read-out: Inhibition Activity IC50, Type I. As to the method:
as §1, §2

For the compound `O=c1c(Cc2cccnc2)cn2c3ccc(Br)cc3c3cc(O)cc1c32` [Example 2, 10-bromo-2-hydroxy-5-(3-pyridylmethyl)-4H-pyrido [3,2,1-jk]carbazole-4-one], the results for the 50% inhibitory concentration (IC50) at PDE type III and in the assay with PDE type I were 3.6 µM and more than 30 µM, respectively.
Turning to `CC(C)OC(=O)COc1cc2c(=O)c(Cc3cccnc3)cn3c4ccc(Br)cc4c(c1)c23` [Example 4, 10-bromo-2-i-propoxycarbonylmethyloxy-5-(3-pyridylmethyl)-4H-pyrido [3,2,1-jk]carbazole-4-one], the IC50 at PDE type III was 6.8 µM; in the assay with PDE type I it was more than 30 µM.
For the compound `CCOC(=O)COc1cc2c(=O)c(Cc3cccnc3)cn3c4ccc(Br)cc4c(c1)c23` [Example 5, 10-bromo-2-ethoxycarbonylmethyloxy-5-(3-pyridylmethyl)-4H-pyrido [3,2,1-jk]carbazole-4-one], the half-inhibitory concentration (IC50) is 19 µM on PDE type III and more than 30 µM with PDE type I.
In the case of `O=c1c(Cc2cccnc2)cn2c3ccc(Br)cc3c3cc(OCc4cccnc4)cc1c32` [Example 18, 10-bromo-5-(3-pyridylmethyl)-2-(3-pyridylmethyloxy)-4H-pyrido [3,2,1-jk]carbazole-4-one], the IC50 at PDE type III is 1.9 µM; in the assay with PDE type I, more than 30 µM.
The corresponding values for `O=c1c(Cc2cccnc2)cn2c3ccc(Br)cc3c3cc(OCc4ccccc4)cc1c32` [Example 22, 2-benzyloxy-10-bromo-5-(3-pyridylmethyl)-4H-pyrido [3,2,1-jk]carbazole-4-one] are 11 µM and more than 30 µM.
`COc1cc2c(=O)c(C)cn3c4ccc(Br)cc4c(c1)c23` [Example 48, 10-bromo-2-methoxy-5-methyl-4H-pyrido [3,2,1-jk]carbazole-4-one]: the half-maximal inhibitory concentration (IC50) on PDE type III and with PDE type I was more than 100 µM in each case.
With `Cc1cn2c3ccc(Br)cc3c3cc(O)cc(c1=O)c32` [Example 49, 10-bromo-2-hydroxy-5-methyl-4H-pyrido [3,2,1-jk]carbazole-4-one], the IC50 on PDE type III was 198 µM; in the assay on PDE type I, more than 300 µM.
For the compound `Cc1cn2c3ccc(Br)cc3c3cc(OCC(=O)OC(C)C)cc(c1=O)c32` [Example 51], the half-inhibitory concentration (IC50) at PDE type III and in the assay on PDE type I was more than 30 µM throughout.
In the case of `CCOC(=O)COc1cc2c(=O)c(C)cn3c4ccc(Br)cc4c(c1)c23` [Example 52, 10-bromo-2-ethoxycarbonylmethyloxy-5-methyl-4H-pyrido [3,2,1-jk]carbazole-4-one], the IC50 at PDE type III and with PDE type I was more than 30 µM each time.
As for `CCCC(=O)COc1cc2c(=O)c(C)cn3c4ccc(Br)cc4c(c1)c23` [Example 57, 10-bromo-2-(2-oxopentyloxy)-5-methyl-4H-pyrido [3,2,1-jk]carbazole-4-one], the 50% inhibitory concentration (IC50) at PDE type III and with PDE type I was more than 30 µM each time.
With `COc1cc2c(=O)ccn3c4ccc(Br)cc4c(c1)c23` [Example 58, 10-bromo-2-methoxy-4H-pyrido [3,2,1-jk]carbazole-4-one], the IC50 at PDE type III and in the assay with PDE type I was more than 10 µM each time.
For the compound `O=c1ccn2c3ccc(Br)cc3c3cc(O)cc1c32` [Example 59, 10-bromo-2-hydroxy-4H-pyrido [3,2,1-jk]carbazole-4-one], the 50% inhibitory concentration (IC50) on PDE type III and in the assay with PDE type I was more than 100 µM in each case.
As to `CC(C)OC(=O)COc1cc2c(=O)ccn3c4ccc(Br)cc4c(c1)c23` [Example 61, 10-bromo-2-i-propoxycarbonylmethyloxy-4H-pyrido [3,2,1-jk]carbazole-4-one], the concentration for half-maximal inhibition (IC50) at PDE type III and with PDE type I was more than 30 µM each time.
As for `CCOC(=O)COc1cc2c(=O)ccn3c4ccc(Br)cc4c(c1)c23` [Example 62, 10-bromo-2-ethoxycarbonylmethyloxy-4H-pyrido [3,2,1-jk]carbazole-4-one], the IC50 at PDE type III and with PDE type I was more than 30 µM each time.
For the compound `O=C(O)COc1cc2c(=O)ccn3c4ccc(Br)cc4c(c1)c23` [Example 63, 10-bromo-2-carboxymethyloxy-4H-pyrido [3,2,1-jk]carbazole-4-one], the 50% inhibitory concentration (IC50) at PDE type III and in the assay with PDE type I was more than 30 µM each time.
Turning to `O=c1ccn2c3ccc(Br)cc3c3cc(OCc4cccnc4)cc1c32` [Example 64, 10-bromo-2-(3-pyridylmethyloxy)-4H-pyrido [3,2,1-jk]carbazole-4-one], the values for the IC50 at PDE type III and with PDE type I were 81 µM and more than 100 µM, respectively.
`O=c1ccn2c3ccc(Br)cc3c3cc(OCc4ccccc4)cc1c32` [Example 66]: the IC50 at PDE type III and with PDE type I was more than 30 µM each time.
For the compound `O=c1ccn2c3ccc(Br)cc3c3cc(OCc4ncon4)cc1c32` [Example 76], the IC50 at PDE type III and in the assay on PDE type I was more than 30 µM in each case.
In the case of `CC(=O)Oc1cc2c(=O)ccn3c4ccc(Br)cc4c(c1)c23` [Example 82], the IC50 on PDE type III and in the assay with PDE type I was more than 100 µM each time.
On to `CCCC(=O)COc1cc2c(=O)ccn3c4ccc(Br)cc4c(c1)c23` [Example 83, 10-bromo-2-(2-oxopentyloxy)-4H-pyrido [3,2,1-jk]carbazole-4-one], for which the IC50 on PDE type III and in the assay on PDE type I was more than 30 µM in each case.
As for `COc1cc2c(=O)c(Cc3cccnc3)cn3c4cc(Br)ccc4c(c1)c23` [Example 101, 9-bromo-2-methoxy-5-(3-pyridylmethyl)-4H-pyrido [3,2,1-jk]carbazole-4-one], the IC50 at PDE type III and with PDE type I was more than 30 µM each time.
For the compound `CC(C)(C)OC(=O)COc1cc2c(=O)c(Cc3cccnc3)cn3c4cc(Br)ccc4c(c1)c23` [Example 103, 9-bromo-2-t-butoxycarbonyl-methyloxy-5-(3-pyridylmethyl)-4H-pyrido [3,2,1-jk]carbazole-4-one], at PDE type III, the IC50 is more than 30 µM.
As for `O=C(O)COc1cc2c(=O)c(Cc3cccnc3)cn3c4cc(Br)ccc4c(c1)c23` [Example 104, 9-bromo-2-carboxymethyloxy-5-(3-pyridylmethyl)-4H-pyrido [3,2,1-jk]carbazole-4-one], the IC50 is 3.5 µM at PDE type III and more than 30 µM in the assay on PDE type I.
Regarding `CC(=O)OCc1cncc(COc2cc3c(=O)c(Cc4cccnc4)cn4c5cc(Br)ccc5c(c2)c34)c1` [Example 106, 2-(5-acetoxymethyl-3-pyridylmethyloxy)-9-bromo-5-(3-pyridylmethyl)-4H-pyrido [3,2,1-jk]carbazole-4-one], the IC50 at PDE type III and in the assay on PDE type I was more than 30 µM each time.
For the compound `O=c1c(Cc2cccnc2)cn2c3cc(Br)ccc3c3cc(OCc4cncc(CO)c4)cc1c32` [Example 107, 9-bromo-2-(5-hydroxymethyl-3-pyridylmethyloxy)-5-(3-pyridylmethyl)-4H-pyrido [3,2,1-jk]carbazole-4-one], the IC50 at PDE type III and with PDE type I was more than 30 µM in each case.
